Where two headings read alike, the source gives them in different places.
How the values were obtained:
[1] = system: New Zealand White rabbits; conditions: methionine (5-25 mM) in vehicle, intravitreal 50 μL/eye up to six times, 14 days apart
Procedure: (§1) Three studies (in cynomolgus monkeys and in New Zealand White rabbits) were conducted in which methionine (5-25 mM) was a component of the vehicle, administered intravitreally (also 50 μL/eye) up to six times, 14 days apart.

cynomolgus monkeys = conditions: 14 days apart
Procedure: A toxicity study in cynomolgus monkeys was conducted in which methionine (10 mM) was a component of the vehicle and of the formulated test article CrossMAb VEGFang2-0016 (faricimab). In this study, a total of 12 animals (6 males/6 females) were treated intravitreal with 50 μL/eye two times, 14 days apart. The left eyes were treated with the vehicle (containing 10 mM methionine) and the right eyes were treated with the formulated test article CrossMAb VEGFang2-0016 (faricimab), also containing 10 mM methionine.
as §1

TIE2 = TIE2 (Homo sapiens, UniProt Q02763); conditions: Maisonpierre et al., Science 277 (1997); read-out: affinity to TIE2 (Kd); cited from earlier work
Sequence of TIE2 (Q02763 23-1124, species assumed): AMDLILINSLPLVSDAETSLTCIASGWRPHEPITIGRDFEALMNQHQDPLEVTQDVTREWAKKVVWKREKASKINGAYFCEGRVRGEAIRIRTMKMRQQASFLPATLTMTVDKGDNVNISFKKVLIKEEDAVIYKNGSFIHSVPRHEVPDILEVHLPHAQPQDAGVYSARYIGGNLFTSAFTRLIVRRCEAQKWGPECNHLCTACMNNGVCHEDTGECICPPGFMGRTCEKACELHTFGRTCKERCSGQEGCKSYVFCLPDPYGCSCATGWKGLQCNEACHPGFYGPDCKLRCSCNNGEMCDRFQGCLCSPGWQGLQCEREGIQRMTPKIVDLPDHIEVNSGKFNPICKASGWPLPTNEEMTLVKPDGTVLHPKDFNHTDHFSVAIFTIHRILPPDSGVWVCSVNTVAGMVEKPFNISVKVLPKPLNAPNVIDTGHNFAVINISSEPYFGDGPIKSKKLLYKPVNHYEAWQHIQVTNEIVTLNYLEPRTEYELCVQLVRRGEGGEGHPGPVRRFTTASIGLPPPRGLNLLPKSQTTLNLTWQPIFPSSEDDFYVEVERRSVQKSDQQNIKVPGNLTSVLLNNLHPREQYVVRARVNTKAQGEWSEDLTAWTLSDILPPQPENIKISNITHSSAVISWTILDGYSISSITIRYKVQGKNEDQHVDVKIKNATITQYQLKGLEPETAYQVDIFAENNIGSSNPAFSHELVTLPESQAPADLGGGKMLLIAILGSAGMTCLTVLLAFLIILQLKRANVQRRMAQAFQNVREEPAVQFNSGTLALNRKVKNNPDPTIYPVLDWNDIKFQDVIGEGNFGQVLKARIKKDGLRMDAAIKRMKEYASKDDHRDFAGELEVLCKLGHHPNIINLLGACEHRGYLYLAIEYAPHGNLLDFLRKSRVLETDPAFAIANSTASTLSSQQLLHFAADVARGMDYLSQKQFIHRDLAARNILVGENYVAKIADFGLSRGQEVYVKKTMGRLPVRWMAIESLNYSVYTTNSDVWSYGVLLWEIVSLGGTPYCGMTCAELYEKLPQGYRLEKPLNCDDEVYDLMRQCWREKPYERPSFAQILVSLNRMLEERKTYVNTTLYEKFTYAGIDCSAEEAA

Molecule	ocular effects of methionine [1]	ocular effects of methionine (cynomolgus monkeys; 10 mM methionine in vehicle and formulated faricimab, intravitreal 50 μL/eye two times)	ocular effects of methionine (cynomolgus monkeys; methionine (5-25 mM) in vehicle, intravitreal 50 μL/eye up to six times)	Kd (TIE2) [nM]
CSCC[C@H](N)C(=O)O [methionine]	no ocular effects	no ocular effects	no ocular effects	
Ang-1: angiopoietin-1, ligand of TIE2 (protein, UniProt Q15389 16-498, looked up) Angiopoietin-1: HIGCSNQRRSPENSGRRYNRIQHGQCAYTFILPEHDGNCRESTTDQYNTNALQRDAPHVEPDFSSQKLQHLEHVMENYTQWLQKLENYIVENMKSEMAQIQQNAVQNHTATMLEIGTSLLSQTAEQTRKLTDVETQVLNQTSRLEIQLLENSLSTYKLEKQLLQQTNEILKIHEKNSLLEHKILEMEGKHKEELDTLKEEKENLQGLVTRQTYIIQELEKQLNRATTNNSVLQKQQLELMDTVHNLVNLCTKEGVLLKGGKREEEKPFRDCADVYQAGFNKSGIYTIYINNMPEPKKVFCNMDVNGGGWTVIQHREDGSLDFQRGWKEYKMGFGNPSGEYWLGNEFIFAITSQRQYMLRIELMDWEGNRAYSQYDRFHIGNEKQNYRLYLKGHTGTAGKQSSLILHGADFSTKDADNDNCMCKCALMLTGGWWFDACGPSNLNGMFYTAGQNHGKLNGIKWHYFKGPSYSLRSTTMMIRPLDF				3

— patent publication US12503503B2, “Bispecific anti-VEGF/ANG2 antibody formulation” (Hoffmann-La Roche Inc., priority 2018, dated 2025)
